Measured values from patent EP4328302A1, “SYNTHESIS OF […] P450 MONO[…] A […]-FREE SYSTEM […] VESICLES” (Fraunhofer-Gesellschaft zur Förderung der angewandten …, priority 2022, dated 2024).

Molecular target: T1, CYP3A4 (Homo sapiens, UniProt P08684)
T1 construct: made in house; host or cells: cell-free protein synthesis in translationally active lysates of CHO-K1 or modified CHO (CHO-CPR, CHO-CPR/CYP3A4) cells; plasmid template from Biocat GmbH
Assay: Luciferase based CYP3A4 activity assay (P450-Glo, Luciferin-IPA turnover) in the microsomal fraction after cell-free synthesis with heme supplementation
Assay type: biochemical
Description: Synthesis of proteins in translationally active lysates derived from cultured Chinese hamster ovary (CHO) cells and its modified variants CHO-CPR and CHO-CPR/CYP3A4 cells, was performed in batch based systems as previously described (Thoring et al. 2016). Accordingly designed plasmids, suitable for CFPS, coding for the CYP of interest, were applied as template. T7 RNA Polymerase, amino acids, an energy regeneration system and other supplements were added to the translationally active lysates with the additional supplementation of 5 µM heme (porcine) (Alfa Aesar Haverhill, Massachusetts, USA) to the reaction and a reaction temperature of 24 °C despite elsewise noted. For the isolation of the microsomes the translation mixture (TM) was centrifuged at 16.000 x g for 10 minutes at 4 °C. […]
For CYP activity measurement,"P450-Glo™ Assays" (Promega, Madison, Wisconsin, USA) were used. CYP1A2 activity was detected by Luciferase-ME turnover (V8772), CYP2B6 was detected by Luciferin-2B6 turnover (V8321) and CYP3A4 was detected by Luciferin-IPA turnover (V9001). […] For response condition adjustments, CYP activities were usually expressed as percentage of the highest CYP activity during the assay. For CYP activity quantification, a standard curve was prepared using beetles luciferin (Promega, Madison, Wisconsin, USA) according to the attached protocol. […]

T1 sequence (P08684 whole entry): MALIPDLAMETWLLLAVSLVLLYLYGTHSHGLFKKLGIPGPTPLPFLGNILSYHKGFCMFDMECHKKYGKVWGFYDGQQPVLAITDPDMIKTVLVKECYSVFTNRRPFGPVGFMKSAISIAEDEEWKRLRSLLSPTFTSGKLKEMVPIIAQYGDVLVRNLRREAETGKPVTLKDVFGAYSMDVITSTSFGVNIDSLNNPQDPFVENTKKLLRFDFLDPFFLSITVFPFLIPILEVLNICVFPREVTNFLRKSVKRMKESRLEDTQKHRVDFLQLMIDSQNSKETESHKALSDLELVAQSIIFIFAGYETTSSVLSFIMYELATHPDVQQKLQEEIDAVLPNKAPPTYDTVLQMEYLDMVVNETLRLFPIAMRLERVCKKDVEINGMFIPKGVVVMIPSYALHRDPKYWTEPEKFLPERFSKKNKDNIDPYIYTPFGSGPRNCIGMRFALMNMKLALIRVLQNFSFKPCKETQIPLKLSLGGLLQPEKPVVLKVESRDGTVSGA

C=CC1=C(C)c2cc3[n-]c(cc4[n-]c(cc5nc(cc1n2)C(C)=C5C=C)c(C)c4CCC(=O)O)c(CCC(=O)O)c3C.[Fe+2] [heme]
CYP3A4 activity compared to the control without supplementation (heme concentration of 5 µM in the cell-free reaction, microsomal fraction (MF), triplicate analysis, highest CYP3A4 activity): more than twofold higher
reduced activity compared to the 5 µM heme supplemented sample (supplementation of higher concentrations of heme (above 5 µM) to the cell-free reaction, CYP3A4 activity in MF): 60%
